Where “and” joins values, the source holds several entries; their conditions need not be identical. Equal entries are not always repeated.
Assays:
[1] = tested on: Saccharomyces cerevisiae (ATCC 287); assay: MIC of the peptides against yeast cells; assay type: cell-based; conditions: PDB, 96-well two-fold dilution 250 to 2 µg/mL, 0.5–2×10^3 cells/mL, overnight 30°C, growth observed visually
Protocol: Saccharomyces cerevisiae (ATCC 287) was grown in Potato Dextrose Broth (PDB) overnight at 30°C with shaking at 220 rpm. The cultures were vortexed vigorously and the cell suspension adjusted to 1–5×10^6 cells/mL with PDB (McFarland standard 0.5) and then diluted 1∶200 with PDB to a final concentration of 0.5–2×10^3 cells/mL [37]. The MIC assays were carried out in 96-well plates as described previously. Peptides (PuroA, Pina-M, Pina-W→F and PuroB) in 25 µL volumes were added to the first empty well and a two-fold dilution was carried out across each row with a starting peptide concentration of 250 µg/mL and a final one of 2 µg/mL. Test wells were subsequently inoculated with 75 µL yeast cells (0.5–2×10^3 cells/mL) and incubated overnight at 30°C. Negative control (no peptide) and positive control (fungicide Mycobutanil) wells were also prepared. The MIC was defined as the lowest concentration of the peptide required to inhibit fungal growth, observed visually.

[2] = tested on: plasmid DNA (pBluescript SK+); assay: Gel retardation assay for in vitro DNA binding; conditions: 100 ng plasmid DNA in 10 µL MilliQ water, 1 h room temperature, peptide 16–500 µg/mL, post-electrophoresis EtBr staining, triplicate assays
Protocol: This test assesses any peptide-DNA binding by noting the retardation of the rate of migration of DNA bands through agarose gels. A number of methods were tested. As per Hsu et al., DNA of a plasmid (200 ng) or a commercial molecular weight marker (50 ng) was mixed with a peptide (to final concentrations of 32, 64, 125 or 250 µg/mL) in 15 µL of 10 mM Tris-1 mM EDTA buffer (pH 8.0), incubated at room temperature for 2 min, then electrophoresed in 0.5% or 1.0% agarose gels containing 0.5 µg/mL ethidium bromide (EtBr). Following Park et al., 100 ng plasmid DNA was mixed with a peptide (to different concentrations) in 20 µL binding buffer (5% glycerol, 10 mM Tris-HCl (pH 8.0), 1 mM EDTA, 1 mM DTT, 20 mM KCl, 50 µg/mL BSA), held for 1 h at room temperature, then electrophoresed in EtBr-containing gels. Finally the protocols were modified to eliminate any interference of EtBr in the initial peptide-DNA binding. Plasmid DNA (100 ng) was mixed with a peptide (to final concentrations of 16, 32, 64, 125, 250 or 500 µg/mL) in 10 µL of MilliQ water, held at room temperature for 1 h and electrophoresed, followed by emersion of gels in EtBr solution (0.5 µg/mL) for 30 min before imaging.

FPVTFRFFKFFKG-NH2 [Pina-W→F, PuroA-based peptide with all Trps substituted with Phe residues]
MIC against S. cerevisiae [1]: 250 µg/mL | Peptide concentration inducing gel retardation, Partial [2]: 32 ± 0 µg/mL | Peptide concentration inducing gel retardation, Full ([2]; complete inhibition of migration): 64 µg/mL and 64 ± 0 µg/mL
